The test system of data set [1] is CRF-induced cAMP production in AtT-20 cells. The data set can be described thus: cAMP production inhibition experiment using AtT-20 cells. It counts as cell-based. Particulars: Mus musculus, AtT20, CRF 30 nM. As to the method:
<cAMP Production Inhibition Experiment Using AtT-20 Cells>
AtT-20 cell is a cell-line derived from mouse pituitary gland tumor, which is known to respond to corticotropin releasing hormone (CRF), to produce cAMP by activation of the intracellular adenylate cyclase system, and to release adrenocorticotropic hormone (ACTH) (Biochem. Biophys. Res. Com., 106, 1364–1371, 1982). In this experiment, AtT-20 cells (1×10^5) were suspended in D-MEM (0.1% FBS) and seeded in a 96-well plate, and then 1 mM (final concentration) phosphodiesterase inhibitor (IBMX, Calbiochem) was added prior to incubation for 30 minutes at 37° C. The diluted test compound solution was then added prior to incubation for 30 minutes at 37° C., and CRF (final concentration: 30 nM) was added prior to further incubation for 30 minutes at 37° C. The cells were collected by centrifugation (1,800 rpm (630×g), 5 minutes), and then lysed with lysis buffer (0.2% dodecyltrimethylammmonium bromide), and the intracellular cAMP production was assayed by HTRF method. cAMP kit HTRF (Nihon Schering) was used for the cAMP assay.
(2) Calculation of cAMP Production Inhibitory Activity;
The cAMP production of each sample was represented as a percentage (% of control), with the CRF (final concentration: 30 nM)-added cells defined as 100% (control).

The next data set deals with CYP3A4. Particulars: human, hepatocytes, 48 h. As to the method:
Evaluation of Drug Metabolizing Enzyme (CYP3A4) Inducibility Using Cryopreserved Human Hepatocyte
Cryopreserved hepatocytes (In Vitro Technology) were rapidly thawed while stirring at 37° C., and then ice-cooled William's Medium E (10% FBS, +PSG) was slowly added to the cells prior to centrifugation at 500 rpm for 5 minutes. After removing the supernatant, the obtained hepatocytes were diluted with ice-cooled William's Medium E to a concentration of 5×10^5 cells/mL, seeded on a 48-well collagen coated plate (BD Biosciences) at 1×10^5 cells/cm^2 and incubated for about 24 hours at 37° C., 5% CO2, after which the medium was changed with Hepato-STIM™ (BD Biosciences) (+EGF, PSG, −FBS) and culture was maintained for another 24 hours under conditions of 37° C., 5% CO2. At approximately 48 hours after the cell seeding, the test compound or rifampicin (SIGMA, positive control) in the form of a diluted solution (using Hepato-STIM™ (+EGF, PSG, −FBS)) was added, hepatocyte were incubated for about 24 hours under conditions of 37° C., 5% CO2, and the culture medium was changed with medium containing a freshly prepared dilution of the test compound or rifampicin prior to further incubation for 24 hours under the same conditions. After incubation, the cells were washed once with PBS, and the total RNA was extracted using a Qiagen RNeasy Mini kit (Qiagen). The cDNA was synthesized by reverse-transcription of extracted using TaqMan Reverse Transcription Reagents (Applied Biosystems). The reverse transcription reaction was carried out using oligo dT as primer, with treatment at 25° C. for 10 minutes followed by treatment at 48° C. for 60 minutes, after which the reverse transcriptase was inactivated by treatment at 95° C. for 10 minutes. The obtained cDNA was supplied to a PCR using a Gene Amp PCR system 9700. The obtained cDNA was quantitated using an SYBR Green PCR Core Reagents kit (Applied Biosystems), and the human CYP3A4 and GAPDH mRNA was quantitated using an ABI7700 (Applied Biosystems). The abbreviations used in the test example are explained below. • FBS: Fetal Bovine Serum • PSG: Penicillin (100 U/ml), Streptomycin (100 μg/ml), Glutamine (2 mM) • EGF: Epidermal Growth Factor • GAPDH: Glyceraldehyde-3-Phosphate Dehydrogenase
(2) Calculation of CYP3A4 Inducibility:
Next, for comparison of each test run, the differences between the value of the CYP3A4 mRNA amount divided by the GAPDH mRNA amount with addition of the test compound at various concentrations and with addition of the negative control were calculated as percentages, with 100% being defined as the difference between the values of the CYP3A4 mRNA amount divided by the GAPDH mRNA amount for the positive control and negative control, to determine the inducibility of each test compound.

In a further data set the target is T1, human CRFR1 (Homo sapiens, UniProt P34998).
T1 construct: The full-length CRFR1 gene was obtained by PCR using human brain cDNA library; expressed in transfected cells
T1 sequence (P34998 24-415): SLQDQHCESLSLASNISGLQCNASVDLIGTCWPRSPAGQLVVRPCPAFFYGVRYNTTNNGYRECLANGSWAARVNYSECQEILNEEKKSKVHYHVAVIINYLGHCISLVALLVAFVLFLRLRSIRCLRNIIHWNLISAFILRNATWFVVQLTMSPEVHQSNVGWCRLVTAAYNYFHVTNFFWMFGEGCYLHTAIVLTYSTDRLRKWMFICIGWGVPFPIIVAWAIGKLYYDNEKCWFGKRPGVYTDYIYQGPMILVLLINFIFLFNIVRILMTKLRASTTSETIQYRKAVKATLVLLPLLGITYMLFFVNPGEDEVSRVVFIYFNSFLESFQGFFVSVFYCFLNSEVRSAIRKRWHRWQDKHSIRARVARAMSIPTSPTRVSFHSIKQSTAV
The data set can be described thus: CRFR binding experiment (125I-CRF, SPA, membrane fraction of CRFR1-expressing HEK293 cells). Particulars: 100 pM 125I-CRF, read-out: CRF1 receptor binding affinity IC50. As to the method: <CRFR Binding Experiment>
The full-length CRFR1 gene was obtained by PCR using human brain cDNA library (QuickClone™ Clontech). […] The CRFR1 expression vector was introduced into HEK293 cell, and the resistant cells which proliferated in culture medium containing G418 (1 mg/ml) were cloned by the limiting dilution method. […] And the selected cells were used for the experiments.

The record followed here is patent publication US7176216B2, “7-phenylpyrazolopyridine compounds” (Eisai Co., Ltd., priority 2002, dated 2007).

Read-outs that look alike come from different tables or passages of the source. Bounds are passed on as bounds.

As to `COCc1cc(OC)c(-c2cccc3c(N(CC4CCOCC4)CC4CC4)c(OC)nn23)c(OC)c1` [Example 47, N-Cyclopropylmethyl-N-7-[2,6-dimethoxy-4-(methoxymethyl)phenyl]-2-methoxypyrazolo[1,5-a]pyridin-3-yl-N-tetrahydro-2H-4-pyranylmethylamine], the IC50 in data set [1] worked out at 50 nM.
In the case of `COCc1cc(OC)c(-c2cccc3c(N(CC4CCOCC4)CC4CC4)c(SC)nn23)c(OC)c1` [Example 59, N-Cyclopropylmethyl-N-[7-[2,6-dimethoxy-4-(methoxymethyl)phenyl]-2-(methylsulfanyl)pyrazolo[1,5-a]pyridin-3-yl]-N-tetrahydro-2H-4-pyranylmethylamine], the “% of Positive Control (CYP3A4 inducibility)” value (shortened to “% of Positive Control”) in the data set with CYP3A4 (0.03 μM) is 2%; in the data set on CYP3A4 (0.1 μM), 3%; with CYP3A4 (0.3 μM), 11%; in the data set on CYP3A4 (1 μM) it was 25%; in the data set on CYP3A4 (3 μM) it was 49%; in the data set on CYP3A4 (10 μM), 59%. Also, the “inducibility (CYP3A4), positive control defined as 100%” value (shortened to “inducibility (CYP3A4) … as 100%”) in the data set with CYP3A4 (1 μM) is ≤ 40%. Further, in data set [1], the IC50 was 3.5 nM.
Turning to `CCCN(CC1CCOCC1)c1c(CC)nn2c(-c3c(OC)cc(COC)cc3OC)cccc12` [Example 13, N-7-[2,6-Dimethoxy-4-(methoxymethyl)phenyl]-2-ethylpyrazolo[1,5-a]pyridin-3-yl-N-propyl-N-tetrahydro-2H-4-pyranylmethylamine], the IC50 in data set [1] came to 11 nM.
For the molecule `CCc1nn2c(-c3c(OC)cc(COC)cc3OC)cccc2c1N(CC1CCOCC1)CC1CC1` [Example 1, N-Cyclopropylmethyl-N-7-[2,6-dimethoxy-4-(methoxymethyl)phenyl]-2-ethylpyrazolo[1,5-a]pyridin-3-yl-N-tetrahydro-2H-4-pyranylmethylamine], the “% of Positive Control” value in the data set on CYP3A4 (0.03 μM) worked out at 6%; with CYP3A4 (0.1 μM), 7%; in the data set on CYP3A4 (0.3 μM) it was 12%; in the data set on CYP3A4 (1 μM), 20%; in the data set on CYP3A4 (3 μM), 36%; in the data set with CYP3A4 (10 μM) it was 65%. Besides, the “inducibility (CYP3A4) … as 100%” value with CYP3A4 (1 μM) is recorded as ≤ 40%. In data set [1], this molecule had an IC50 of 4 nM.
In the case of `CCOCc1cc(OC)c(-c2cccc3c(N(CC4CCOCC4)CC4CC4)c(CC)nn23)c(OC)c1` [Example 3, N-Cyclopropylmethyl-N-7-[4-(ethoxymethyl)-2,6-dimethoxyphenyl]-2-ethylpyrazolo[1,5-a]pyridin-3-yl-N-tetrahydro-2H-4-pyranylmethylamine], the “% of Positive Control” value is given as 3% with CYP3A4 (0.03 μM); 3% with CYP3A4 (0.1 μM); 7% in the data set on CYP3A4 (0.3 μM); 25% in the data set with CYP3A4 (1 μM); 23% in the data set with CYP3A4 (3 μM); 34% in the data set with CYP3A4 (10 μM). The “inducibility (CYP3A4) … as 100%” value with CYP3A4 (1 μM) is on record as ≤ 40%. In data set [1], this molecule registered an IC50 of 5.1 nM.
Regarding `CCCN(CC1CCOCC1)c1c(CC)nn2c(-c3c(OC)cc(COCC)cc3OC)cccc12` [Example 23, N-7-[4-(Ethoxymethyl)-2,6-dimethoxyphenyl]-2-ethylpyrazolo[1,5-a]pyridin-3-yl-N-propyl-N-tetrahydro-2H-4-pyranylmethylamine], the results for the IC50 (at human CRFR1; in data set [1]) were 50 nM and 6 nM, respectively.
For the molecule `COCc1cc(OC)c(-c2cccc3c(N(CC4CC4)CC4CCOC4)c(SC)nn23)c(OC)c1` (stereo not drawn) [Example 60, N-Cyclopropylmethyl-N-[7-[2,6-dimethoxy-4-(methoxymethyl)phenyl]-2-(methylsulfanyl)pyrazolo[1,5-a]pyridin-3-yl]-N-tetrahydro-3-furanylmethylamine], the IC50 came out at 30 nM on human CRFR1 and 3.5 nM in data set [1].

What is called IC50 is the midpoint of a concentration-inhibition curve.
